Like-named read-outs stand apart in the source and are kept apart here.
Experiments:
[1] = system: subjects with eosinophilic asthma
Protocol: Pulmonary function is measured by performing a spirometry, which measures forced expiratory volume in is (FEV1), the volume of air moved in the first second of exhalation, this is a well-accepted measure of asthma. Forced vital capacity (FVC) is the total volume of air exhaled during the entire forced expiratory volume (FEV) test. The FEV1/FVC ratio is a calculated measure that may provide a more specific measure of bronchoconstriction, independent of processes such as air trapping. Pulmonary function testing can be tested pre-bronchodilator (after waiting a sufficient time so that all bronchodilator medications have cleared) or post-bronchodilator, typically 15-30 minutes after inhaling a short-acting bronchodilator, such as albuterol. Bronchodilator reversibility (BDR) is calculated and assessed by analyzing FEV1 pre- and post-bronchodilator, and calculating the change both as absolute (ml) and percentage change.
Evaluation of Efficacy: Blood eosinophil count, changes in pulmonary function (FEV1), Asthma Control Questionnaire (ACQ-6), Asthma Control Questionnaire (ACQ-7), Asthma Quality of Life Questionnaire (AQLQ), exhaled nitric oxide, pharyngeal and nasal eosinophil peroxidase were collected periodically during the study.
To control the alpha level for testing 3 dose groups versus placebo for the primary endpoint and for testing FEV1, a closed hierarchical testing procedure was used in the following order: 1. First, the 300 mg/day dose group was tested versus placebo for change in blood absolute eosinophil count, and if this reached the <0.05 level then, 2. the 150 mg/day dose group was tested versus placebo at the 0.05 level for change in blood absolute eosinophil count, and if this reached the <0.05 level then, 3. the pooled 150 and 300 mg/day dose groups were tested versus placebo at the 0.05 level for change in FEV1 at Week 12, then 4. the 75 mg/day dose group was tested versus placebo at the 0.05 level for change in blood absolute eosinophil count, and if this reached the <0.05 level.

[2] = system: subjects with eosinophilic chronic rhinosinusitis with nasal polyps; settings: 150 mg twice daily
Description: Current asthma medications work in a variety of ways. […] The co-primary endpoints were change in AEC and change in total polyp score (TPS) from baseline to Month 6, with additional clinical and histologic endpoints assessed.

[3] = 300 mg/day, Table 6D, timepoint printed as Analysis Baseline*
[4] = 300 mg/day, Table 6D, timepoint printed as Week 4
[5] = Week 4, pooled dexpramipexole arms, <50% AEC reduction at Week 12
[6] = Week 4, pooled dexpramipexole arms, ≥50% AEC reduction at Week 12
[7] = Week 8, pooled dexpramipexole arms, ≥50% AEC reduction at Week 12
[8] = Week 12, pooled dexpramipexole arms, <50% AEC reduction at Week 12
[9] = Week 12, pooled dexpramipexole arms, ≥50% AEC reduction at Week 12
[10] = Week 16 or Week 18, pooled dexpramipexole arms, ≥50% AEC reduction at Week 12
[11] = 12 subjects with a history of asthma

With `CCCN[C@@H]1CCc2nc(N)sc2C1` [dexpramipexole, (6R)-2-amino-4,5,6,7-tetrahydro-6-(propylamino) benzothiazole] the “FEV1 difference versus Placebo LSM” value ([1]; 150 mg/day, Week 16 or Week 18) was 0.161 L, the “Pre-Bronchodilator FEV1, % change from Baseline, mean” value (“Pre-Bronchodilator FEV1, % change” below) ([1]; 150 mg/day, Week 16 or Week 18) was 7.71% and the “ΔFEV1 vs Placebo LSM (SEM), pooled data” value ([1]; 150 mg/day, Weeks 4, 8, 12, & 16/18 pooled) was 126 mL. For the same compound, the “Placebo-corrected FEV1 increase from baseline” value ([1]; 300 mg/day arm, averaged Week 8 through Week 16/18) was “counts. In the 300 mg/day arm, placebo-corrected FEV1 increased more than 200 mL from baseline, averaged”, the “Pre-Bronchodilator FEV1 % change, mean” value [1, 3] was 15.5% and the “Pre-Bronchodilator FEV1 % change, median” value [1, 3] was 10.5%. For the same compound, the “Pre-Bronchodilator FEV1 change, mean” value [1, 3] was 0.277 L, the “Pre-Bronchodilator FEV1 change, median” value [1, 3] was 0.250 L and the “Pre-Bronchodilator FEV1 observed, mean” value [1, 3] was 2.32 L. The “Pre-Bronchodilator FEV1 observed, median” value [1, 3] was 2.40 L, the “Pre-Bronchodilator FEV1 % change, mean” value [1, 4] was 12.5% and the “Pre-Bronchodilator FEV1 % change, median” value [1, 4] was 10.0%. For the same compound, the “Pre-Bronchodilator FEV1 change, mean” value [1, 4] was 0.236 L, the “Pre-Bronchodilator FEV1 change, median” value [1, 4] was 0.210 L and the “Pre-Bronchodilator FEV1 observed, mean” value [1, 4] was 2.29 L. The “Pre-Bronchodilator FEV1 observed, median” value [1, 4] was 2.45 L, the “FEV1 change from Baseline LSM” value ([1]; 300 mg/day, Week 4) was 0.0685 L and the “FEV1 difference versus Placebo LSM” value ([1]; 300 mg/day, Week 4) was 0.0838 L. The “Pre-Bronchodilator FEV1 % change, median” value ([1]; 300 mg/day, Week 4) was 3.95%, the “Pre-Bronchodilator FEV1, % change” value ([1]; 300 mg/day, Week 4) was 1.42% and the “Pre-Bronchodilator FEV1 change, mean” value ([1]; 300 mg/day, Week 4) was 0.0417 L. The “Pre-Bronchodilator FEV1 change, median” value ([1]; 300 mg/day, Week 4) was 0.0700 L, the “Pre-Bronchodilator FEV1 observed, mean” value ([1]; 300 mg/day, Week 4) was 2.14 L and the “Pre-Bronchodilator FEV1 observed, median” value ([1]; 300 mg/day, Week 4) was 2.16 L. For the same compound, the “Pre-Bronchodilator Percent Predicted FEV1 % change, mean” value ([1]; 300 mg/day, Week 4) was 1.42%, the “Pre-Bronchodilator Percent Predicted FEV1 % change, median” value ([1]; 300 mg/day, Week 4) was 3.94% and the “Pre-Bronchodilator Percent Predicted FEV1 change, mean” value ([1]; 300 mg/day, Week 4) was 0.607%. The “Pre-Bronchodilator Percent Predicted FEV1 change, median” value ([1]; 300 mg/day, Week 4) was 2.34%, the “Pre-Bronchodilator Percent Predicted FEV1 observed, mean” value ([1]; 300 mg/day, Week 4) was 62.5% and the “Pre-Bronchodilator Percent Predicted FEV1 observed, median” value ([1]; 300 mg/day, Week 4) was 62.3%. The “FEV1 change from Baseline LSM” value ([1]; 300 mg/day, Week 8) was 0.248 L, the “FEV1 difference versus Placebo LSM” value ([1]; 300 mg/day, Week 8) was 0.254 L and the “Pre-Bronchodilator FEV1, % change” value ([1]; 300 mg/day, Week 8) was 15.5%. For the same compound, the “FEV1 change from Baseline LSM” value ([1]; 300 mg/day, Week 12) was 0.209 L, the “FEV1 difference versus Placebo LSM” value ([1]; 300 mg/day, Week 12) was 0.162 L and the “Pre-Bronchodilator FEV1, % change” value ([1]; 300 mg/day, Week 12) was 12.5%. The “FEV1 change from Baseline LSM” value ([1]; 300 mg/day, Week 16 or Week 18) was 0.207 L, the “FEV1 difference versus Placebo LSM” value ([1]; 300 mg/day, Week 16 or Week 18) was 0.240 L and the “Pre-Bronchodilator FEV1, % change” value ([1]; 300 mg/day, Week 16 or Week 18) was 10.8%. For the same compound, the “ΔFEV1 vs Placebo LSM (SEM), pooled data” value ([1]; 300 mg/day, Weeks 4, 8, 12, & 16/18 pooled) was 185 mL, the “Improvement in FEV1” value ([1]; 150 and 75 mg/day arms) was “Week 8 through Week 16/18. Substantial improvements in FEV1 were also seen in the 150 and 75 mg/day arms” and the “ΔFEV1 vs Placebo LSM (SEM), pooled data” value ([1]; All Dex arms pooled, Week 4) was 138 mL. The “ΔFEV1 vs Placebo LSM (SEM), pooled data” value ([1]; All Dex arms pooled, Week 8) was 212 mL, the “ΔFEV1 vs Placebo LSM (SEM), pooled data” value ([1]; All Dex arms pooled, Week 12) was 99 mL and the “ΔFEV1 vs Placebo LSM (SEM), pooled data” value ([1]; All Dex arms pooled, Week 16/18) was 233 mL. The “ΔFEV1 vs Placebo LSM (SEM), pooled data” value ([1]; All Dex arms pooled, Weeks 4, 8, 12, & 16/18 pooled) was 173 mL, the “Magnitude and statistical significance of FEV1 improvement from baseline compared with other drugs” value ([1]; Table 5, FIG. 3, FIG. 6) was “comparable or greater than that demonstrated in phase 2 clinical trials of benralizumab and mepolizumab” and the “Pre-Bronchodilator FEV1 Change from Baseline LSM” value [1, 5] was 0.0742 L. For the same compound, the “Pre-Bronchodilator FEV1 Difference versus Placebo LSM” value [1, 5] was 0.0859 L, the “Pre-Bronchodilator FEV1 Change from Baseline LSM” value [1, 6] was 0.163 L and the “Pre-Bronchodilator FEV1 Difference versus Placebo LSM” value [1, 6] was 0.175 L. For the same compound, the “Pre-Bronchodilator FEV1 Difference versus Placebo LSM” value ([1]; Week 8, pooled dexpramipexole arms, <50% AEC reduction at Week 12) was 0.132 L, the “Pre-Bronchodilator FEV1 Change from Baseline LSM” value [1, 7] was 0.275 L and the “Pre-Bronchodilator FEV1 Difference versus Placebo LSM” value [1, 7] was 0.276 L. The “Pre-Bronchodilator FEV1 Change from Baseline LSM” value [1, 8] was 0.00797 L, the “Pre-Bronchodilator FEV1 Difference versus Placebo LSM” value [1, 8] was -0.0448 L and the “Pre-Bronchodilator FEV1 Change from Baseline LSM” value [1, 9] was 0.261 L. For the same compound, the “Pre-Bronchodilator FEV1 Difference versus Placebo LSM” value [1, 9] was 0.208 L, the “Pre-Bronchodilator FEV1 Difference versus Placebo LSM” value ([1]; Week 16 or Week 18, pooled dexpramipexole arms, <50% AEC reduction at Week 12) was 0.169 L and the “Pre-Bronchodilator FEV1 Change from Baseline LSM” value [1, 10] was 0.258 L. The “Pre-Bronchodilator FEV1 Difference versus Placebo LSM” value [1, 10] was 0.287 L, the “FEV1 in hematologic responders” value ([1]; all post-baseline time points (Table 12, FIG. 5)) was “significant increase” and the “Total polyp score (TPS), mean” value ([2]; 3 months (Baseline 5.29)) was 5.50. The “Other indices of chronic rhinosinusitis disease activity (SNOT-22, sinus CT score, Sniffin Sticks olfaction test)” value ([2]; 6 month trial) was “not improved”, the “Total polyp score (TPS), mean” value ([2]; 6 months (Baseline 5.29)) was 5.42 and the ACQ6 values [2, 11] was “unchanged”. For the same compound, the FEV1 values [2, 11] was “unchanged”.

Source: patent publication US20240041840A1 (Areteia Therapeutics, Inc., priority 2020, published 2024)
